The target in one data set is T1, HDAC1 (Homo sapiens, UniProt Q13547).
T1 construct: purchased BPS
As to the kind of experiment: HDAC subtype enzyme activity assay. The data set is classed as biochemical. As to conditions: read-out: HDAC1 Inhibition Rate/%.

Data set [1] is described as follows: Phase I metabolic stability in liver microsomes. The data set is classed as in vitro ADME, humans. Conditions: HLM. The method, then: (§1) Evaluation of the Phase I metabolic stability of the test compound in liver microsomes from CD-1 mice (MLM), Sprague-Dawley rats (RLM), beagle dogs (DLM), cynomolgus monkeys (CLM), and humans (HLM).
(§2) The animal and human liver microsomes used in this test system were purchased from Xenotech, Corning, or other qualified suppliers and stored in a freezer below -60°C before use.
(§3) The test and control compounds were incubated with animal and human liver microsomes at 37±1°C for a certain period, with a maximum incubation time of 60 minutes. Samples were taken at specified time points, and the reaction was terminated with acetonitrile or other organic solvents containing an internal standard. After centrifugation, the resulting supernatant was analyzed using liquid chromatography-tandem mass spectrometry (LC-MS/MS).
(§4) 73.21 g of dipotassium hydrogen phosphate trihydrate and 10.78 g of potassium dihydrogen phosphate were dissolved in 4000 mL of ultrapure water. The pH of the solution was adjusted to 7.40±0.10 using 10% phosphoric acid or 1 M potassium hydroxide, with a final concentration of 100 mM. […]
(§5) Sample analysis was performed using liquid chromatography-tandem mass spectrometry (LC-MS/MS), without calibration curves and quality control samples. Semi-quantitative determination was performed using the ratio of the analyte peak area to the internal standard peak area. […]

Data set [2] is described as follows: Phase I metabolic stability in liver microsomes. In kind it is in vitro ADME, Sprague-Dawley rats. Conditions: RLM. How it is done: as §1, §2, §3, §4, §5
Data set [3] is described as follows: Phase I metabolic stability in liver microsomes. In kind it is in vitro ADME, CD-1 mice. Conditions: MLM. How it is done: as §1, §2, §3, §4, §5
Data set [4] in a line: Phase I metabolic stability in liver microsomes. As to conditions: DLM. In kind it is in vitro ADME, beagle dogs. How it is done:
as §1, §2, §3, §4, §5

Data set [5] can be described thus: Phase I metabolic stability in liver microsomes. In kind it is in vitro ADME, cynomolgus monkeys. Conditions: CLM. How it is done: as §1, §2, §3, §4, §5
The nature of data set [6]: Mouse pharmacokinetic test (IV and PO). The data set is classed as in vivo. Conditions: BALB/c mice. The method, then:
This experimental example tested the pharmacokinetic behavior of the compound in BALB/c mice after intravenous (IV) and oral (PO) administration.
The actual body weight of the mice was measured on the day of dosing and the dose volume was calculated. Each group consisted of 3 mice. The compound was tested in two groups: one group received a single intravenous injection, and the other group received a single oral gavage. Whole blood samples were collected via orbital bleeding at specified time points (0.25, 0.5, 1, 2, 4, 8, 24h post-dose). After blood collection, samples were immediately transferred to labeled commercial tubes containing K2-EDTA (0.85-1.15 mg), then centrifuged (3200 x g, 4°C, 10 minutes) to obtain plasma. The plasma was transferred to pre-cooled centrifuge tubes, flash-frozen on dry ice, and stored in an ultra-low temperature freezer at -60°C or lower until LC-MS/MS analysis.
Plasma concentrations were determined using an LC-MS/MS method. […] Relevant pharmacokinetic parameters were calculated using the linear log trapezoidal method. Table 9: Mouse Pharmacokinetic Test Experimental Data

The mark [7] stands for this setting: 60 min, buffer instead of NADPH regeneration system.
[8] abbreviates: 60 min with NADPH regeneration system.

From patent publication EP4786468A1, “CRYSTALLINE FORM OF HDAC6 INHIBITOR AND PREPARATION METHOD THEREFOR” (Suzhou Genhouse Bio Co., Ltd., priority 2023, dated 2025) come the findings set out here.

T1 sequence (Q13547 whole entry, species assumed): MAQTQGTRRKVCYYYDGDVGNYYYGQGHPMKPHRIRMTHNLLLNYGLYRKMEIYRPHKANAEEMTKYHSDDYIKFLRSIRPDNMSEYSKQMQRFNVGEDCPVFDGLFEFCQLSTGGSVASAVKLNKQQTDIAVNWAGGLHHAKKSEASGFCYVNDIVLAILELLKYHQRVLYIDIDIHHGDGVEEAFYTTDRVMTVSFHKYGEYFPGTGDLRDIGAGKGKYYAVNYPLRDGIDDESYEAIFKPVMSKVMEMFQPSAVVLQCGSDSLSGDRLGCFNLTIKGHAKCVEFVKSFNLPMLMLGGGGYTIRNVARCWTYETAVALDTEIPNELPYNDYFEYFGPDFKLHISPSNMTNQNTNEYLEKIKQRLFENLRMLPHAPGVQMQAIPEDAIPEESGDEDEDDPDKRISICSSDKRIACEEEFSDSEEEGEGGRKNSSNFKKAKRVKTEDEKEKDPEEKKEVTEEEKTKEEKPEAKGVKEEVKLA
Source text for HDAC1: The IC50 was obtained by fitting with GraphPad Prism 7.0 software.

Take `O=C(N[C@@H]1CCCC[C@H]1N1Cc2ccc(-c3nnc(C(F)F)o3)cc2S1(=O)=O)C(F)F` [I]: at HDAC1, the inhibition at 1 µM is -11.9%. Further, the inhibition at 10 µM at HDAC1 is -3.91%. Also, the “Remaining Rate (NCF=60 min)” value came out at 97.3% in data set [1] (setting [7]); 93.0% in data set [2] (setting [7]); 99.8% in data set [3] (setting [7]); 90.9% in data set [4] (setting [7]); 101.5% in data set [5] (setting [7]). Further, the “Remaining Rate (T=60 min)” value in data set [1] (setting [8]) is on record as 86.1%; in data set [2] (setting [8]) it was 76.4%; in data set [3] (setting [8]) it was 84.8%; in data set [4] (setting [8]), 85.8%; in data set [5] (setting [8]), 88.8%. The compound further returned a CLz in data set [6] (IV@2mg/kg) of 6 mL/min/kg. Moreover, the t1/2z in data set [6] (IV@2mg/kg) was 60.6 min; in data set [6] (PO@10mg/kg), 97.2 min; in data set [6] (PO@30mg/kg), 52.2 min; in data set [6] (PO@100mg/kg) it was 48.6 min. Further, the F in data set [6] (PO@10mg/kg) turned out to be 123.92%; in data set [6] (PO@30mg/kg), 96.93%; in data set [6] (PO@100mg/kg), 95.71%.
